This is an account of results in patent US20090029992A1, “SUBSTITUTED PYRAZOLE COMPOUNDS” (priority 2007, published 2009).

Format in all cases: biochemical
For experiment [1], the target named is T1, recombinant Aurora A (Homo sapiens, UniProt O14965).
T1 construct: purchased Upstate, Lake Placid, N.Y
T1 sequence (O14965 1-403): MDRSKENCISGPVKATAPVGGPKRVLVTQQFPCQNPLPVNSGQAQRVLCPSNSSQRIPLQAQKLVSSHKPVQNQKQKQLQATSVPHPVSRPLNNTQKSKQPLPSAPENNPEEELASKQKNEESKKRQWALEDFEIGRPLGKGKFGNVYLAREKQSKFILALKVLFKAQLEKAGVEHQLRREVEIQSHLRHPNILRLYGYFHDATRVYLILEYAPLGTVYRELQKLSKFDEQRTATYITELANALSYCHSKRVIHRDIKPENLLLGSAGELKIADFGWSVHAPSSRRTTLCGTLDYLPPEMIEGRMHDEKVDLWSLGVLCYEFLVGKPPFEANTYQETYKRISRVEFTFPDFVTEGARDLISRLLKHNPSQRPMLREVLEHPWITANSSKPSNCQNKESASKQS
Nature of the experiment: Aurora A (Aurora 2) inhibition assay, Z'-Lyte kinase assay. Conditions: ATP 10 μM, 1 h. Here is the method: Compounds were tested for their potency against recombinant Aurora A (Upstate, Lake Placid, N.Y.) using the PanVera Z′-Lyte kinase assay kit—Ser/Thr 1 peptide (Invitrogen, Carlsbad, Calif.). Assays were carried out in kinase assay buffer (50 mM HEPES, pH 7.5, 10 mM MgCl2, 5 mM EGTA, 0.05% Brij-35, 2 mM DTT). Test compounds were initially dissolved in DMSO at 100× the highest tested concentration, then serially diluted to 4× test concentrations in kinase assay buffer. Next, Aurora A (final concentration 200-500 ng/mL), Z′-Lyte Ser/Thr 1 peptide (final concentration 2 μM) and ATP (final concentration 10 μM) were added according to the manufacturer's instructions. Assays were carried out in half-area 96-well white polystyrene assay plates (Corning, Corning, N.Y.) in a final volume of 20 μl. The reaction was allowed to proceed for 1 h at room temperature in the dark, at which point the development reagent and stop reagent were added according to the manufacturer's instructions. Coumarin (Ex. 400 nm, Em. 465 nm) and fluorescein (Ex. 400 nm, Em. 565 nm) fluorescence values were measured on a SpectraFluor Plus plate reader (Tecan, Durham, N.C.). The emission ratio (coumarin/fluorescein) was determined and used to calculate the percent phosphorylation for each well. Wells containing substrate but no kinase and wells containing a phosphopeptide control were used to set 0% and 100% phosphorylation values, respectively. Typically 20-40% of the substrate was phosphorylated in wells without inhibitor. Dose-response curves of relative Aurora A activity vs. inhibitor concentration were plotted with Grafit (Erithacus Software, Horley, Surrey, UK).

Experiment [2] deals with T2, N-terminal His-tagged human Src (Homo sapiens, UniProt P12931).
T2 construct: His (N); purchased Upstate USA Inc, 706 Forest Street, Charlottesville, Va
Nature of the experiment: Src kinase inhibition assay (33P-ATP filter assay). As to the method:
Compounds were assayed for Src kinase inhibitory activity using N-terminal His-tagged human Src (Upstate USA Inc, 706 Forest Street, Charlottesville, Va.). Serial dilutions of compound were assayed in a final reaction volume of 25 μL by incubating a solution of the above Src kinase (5-10 mU), 8 mM MOPS (3-(N-morpholino) propanesulfonic acid) pH 7.0, 0.2 mM EDTA (ethylenediamine tetracetic acid), 250 μM amino acid sequence KVEKIGEGTYGVVYK (Upstate USA Inc, 706 Forest Street, Charlottesville, Va.), and 10 mM magnesium acetate and [γ-^33P-ATP] (specific activity of about 500 cpm/μmol, concentration as required). The reaction was initiated by the addition of the magnesium acetate and [γ-^33P-ATP] mixture. After incubation for 40 minutes at room temperature, the reaction was stopped by the addition of 5 μL of a 3% phosphoric acid solution. A 10 μL aliquote of the reaction was then spotted onto a P30 filtermat (PerkinElmer, Wellesley, Mass.) and washed three times for five minutes in 75 mM phosphoric acid and once in methanol prior to drying and scintillation counting. Inhibition of Src activity was determined by comparison to assays that contained no inhibitor.

In experiment [3] the target is T3, N-terminal GST-tagged recombinant human Flt3, residues 564-end (Homo sapiens, UniProt P36888).
T3 construct: recombinant human Flt3, residues 564-end; GST (N); purchased Upstate USA Inc, 706 Forest Street, Charlottesville, Va
T3 sequence (P36888 564-993 limits assumed): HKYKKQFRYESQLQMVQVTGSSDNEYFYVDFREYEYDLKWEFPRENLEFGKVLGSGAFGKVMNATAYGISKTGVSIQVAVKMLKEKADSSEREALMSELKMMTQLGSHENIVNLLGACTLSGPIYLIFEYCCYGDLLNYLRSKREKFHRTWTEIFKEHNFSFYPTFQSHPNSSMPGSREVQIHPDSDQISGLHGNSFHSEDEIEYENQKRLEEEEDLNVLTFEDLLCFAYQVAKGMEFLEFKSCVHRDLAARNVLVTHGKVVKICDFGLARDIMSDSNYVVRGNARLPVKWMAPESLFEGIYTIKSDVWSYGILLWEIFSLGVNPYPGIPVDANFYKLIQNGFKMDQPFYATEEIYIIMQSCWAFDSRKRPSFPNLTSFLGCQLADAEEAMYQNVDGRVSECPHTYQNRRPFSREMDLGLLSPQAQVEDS
Nature of the experiment: Flt3 kinase inhibition assay (33P-ATP filter assay). The settings on record: 40 minutes at room temperature. As to the method:
(§1) Compounds were assayed for Flt3 kinase inhibitory activity using N-terminal GST-tagged recombinant human Flt3, residues 564-end (Upstate USA Inc, 706 Forest Street, Charlottesville, Va.). Serial dilutions of compound were assayed in a final reaction volume of 25 μL by incubating a solution of the above Flt3 kinase (5-10 mU), 8 mM MOPS (3-(N-morpholino) propanesulfonic acid) pH 7.0, 0.2 mM EDTA (ethylenediamine tetracetic acid), 50 μM amino acid sequence EAIYAAPFAKKK (Upstate USA Inc, 706 Forest Street, Charlottesville, Va.), and 10 mM magnesium acetate and [γ-^33P-ATP] (specific activity of about 500 cpm/μmol, concentration as required). The reaction was initiated by the addition of the magnesium acetate and [γ-^33P-ATP] mixture. After incubation for 40 minutes at room temperature, the reaction was stopped by the addition of 5 μL of a 3% phosphoric acid solution. A 10 μL aliquote of the reaction was then spotted onto a P30 filtermat (PerkinElmer, Wellesley, Mass.) and washed three times for five minutes in 75 mM phosphoric acid and once in methanol prior to drying and scintillation counting. Inhibition of Flt3 activity was determined by comparison to assays that contained no inhibitor.

For experiment [4], the target named is T4, N-terminal His6-tagged recombinant human KDR, residues 790-end (Homo sapiens, UniProt P35968).
T4 construct: recombinant human KDR, residues 790-end; His6 (N); purchased Upstate USA Inc, 706 Forest Street, Charlottesville, Va
Nature of the experiment: KDR kinase inhibition assay (33P-ATP filter assay). As to the method: as §1, with “KDR” for “Flt3”, “His6-tagged” for “GST-tagged”, “KDR,” for “Flt3,”, “790-end” for “564-end”, “0.33 mg/mL myelin basic protein” for “50 μM amino acid sequence EAIYAAPFAKKK”

The mark [5] stands for this setting: group with IC50 greater than 100 nM.

T2 sequence (P12931 whole entry): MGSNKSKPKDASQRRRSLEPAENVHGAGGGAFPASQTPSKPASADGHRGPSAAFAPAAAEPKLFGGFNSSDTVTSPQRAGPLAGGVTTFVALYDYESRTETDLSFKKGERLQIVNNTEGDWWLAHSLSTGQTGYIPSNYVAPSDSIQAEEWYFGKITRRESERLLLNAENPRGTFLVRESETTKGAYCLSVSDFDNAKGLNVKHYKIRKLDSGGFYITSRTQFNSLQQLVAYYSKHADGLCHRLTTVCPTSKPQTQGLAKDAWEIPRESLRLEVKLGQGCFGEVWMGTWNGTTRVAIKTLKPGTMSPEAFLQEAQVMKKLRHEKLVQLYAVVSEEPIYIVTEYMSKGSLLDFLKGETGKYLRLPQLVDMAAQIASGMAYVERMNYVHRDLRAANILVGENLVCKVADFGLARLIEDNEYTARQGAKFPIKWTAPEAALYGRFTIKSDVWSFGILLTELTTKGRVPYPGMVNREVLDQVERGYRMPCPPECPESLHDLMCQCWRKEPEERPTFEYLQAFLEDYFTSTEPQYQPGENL
T4 sequence (P35968 790-1356 limits assumed): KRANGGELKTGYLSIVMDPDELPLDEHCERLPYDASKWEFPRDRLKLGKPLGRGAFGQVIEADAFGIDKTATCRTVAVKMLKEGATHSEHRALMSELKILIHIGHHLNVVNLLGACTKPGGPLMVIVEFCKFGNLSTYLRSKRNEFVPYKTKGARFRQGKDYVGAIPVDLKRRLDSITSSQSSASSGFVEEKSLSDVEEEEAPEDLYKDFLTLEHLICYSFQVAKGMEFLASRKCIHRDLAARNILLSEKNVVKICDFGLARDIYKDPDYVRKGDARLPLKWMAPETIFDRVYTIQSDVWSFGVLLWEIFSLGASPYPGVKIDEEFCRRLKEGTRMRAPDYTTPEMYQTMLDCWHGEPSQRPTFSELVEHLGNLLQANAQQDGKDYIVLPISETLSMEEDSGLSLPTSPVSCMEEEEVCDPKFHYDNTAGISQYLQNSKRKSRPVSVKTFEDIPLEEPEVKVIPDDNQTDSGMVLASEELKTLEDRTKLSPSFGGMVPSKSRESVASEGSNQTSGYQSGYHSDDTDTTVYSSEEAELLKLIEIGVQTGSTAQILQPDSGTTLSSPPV

With `Cc1cc(Nc2cc(NC3CCOCC3)nc(-c3cccc(C)c3C)n2)n[nH]1` [Example 180, 2-(2,3-dimethylphenyl)-N^4-(5-methyl-1H-pyrazol-3-yl)-N^6-(tetrahydro-2H-pyran-4-yl)pyrimidine-4,6-diamine], the IC50 (as a rule, the concentration that gives 50% inhibition) was not above 1000 nM in experiment [1] (setting [5]), not above 1000 nM in experiment [2] (setting [5]), not above 100 nM in experiment [3] and not above 100 nM in experiment [4] (40 minutes at room temperature).

For the compound `Cc1ccc(C)c(-c2nc(Nc3cc(C)[nH]n3)cc(NC3CCOCC3)n2)c1` [Example 206, 2-(2,5-dimethylphenyl)-N^4-(5-methyl-1H-pyrazol-3-yl)-N^6-(tetrahydro-2H-pyran-4-yl)pyrimidine-4,6-diamine], the IC50 in experiment [1] (setting [5]) was not above 1000 nM; in experiment [2] (setting [5]), not above 1000 nM; in experiment [3], not above 100 nM; in experiment [4] (setting [5]), not above 1000 nM.

Regarding `Cc1cc(Nc2cc(N3CCN(C)CC3)nc(-c3cccc(O)c3)n2)n[nH]1` [Example 161, 3-(4-(5-methyl-1H-pyrazol-3-ylamino)-6-(4-methylpiperazin-1-yl)pyrimidin-2-yl)phenol], the IC50 in experiment [1], in experiment [2] (40 minutes at room temperature), in experiment [3] and in experiment [4] (40 minutes at room temperature) was not above 100 nM each time.

As for `COCCN(C)c1cc(Nc2cc(C)[nH]n2)nc(-c2cccc(C)c2C)n1` [Example 181, 2-(2,3-dimethylphenyl)-N^4-(2-methoxyethyl)-N^4-methyl-N^6-(5-methyl-1H-pyrazol-3-yl)pyrimidine-4,6-diamine], the IC50 in experiment [1] (setting [5]) is not above 1000 nM; in experiment [2] (setting [5]), not above 1000 nM; in experiment [3], not above 100 nM; in experiment [4] (setting [5]), not above 1000 nM.

For `CC(=O)Nc1cccc(-c2nc(Nc3cc(C)[nH]n3)cc(N3CCN(C)CC3)n2)c1` [Example 167, N-(3-(4-(5-methyl-1H-pyrazol-3-ylamino)-6-(4-methylpiperazin-1-yl)pyrimidin-2-yl)phenyl)acetamide], the half-inhibitory concentration (IC50) in experiment [1], in experiment [2] (40 minutes at room temperature), in experiment [3] and in experiment [4] (40 minutes at room temperature) was not above 100 nM in each case.

Regarding `Cc1cc(Nc2cc(NC3CCOCC3)nc(-c3ccccc3Cl)n2)n[nH]1` [Compound 24, 2-(2-chlorophenyl)-N^4-(5-methyl-1H-pyrazol-3-yl)-N^6-(tetrahydro-2H-pyran-4-yl)pyrimidine-4,6-diamine], the IC50 in experiment [1] (setting [5]), in experiment [2] (setting [5]) and in experiment [4] (setting [5]) was not above 1000 nM each time.

As to `Cc1cc(Nc2cc(NC3CCOCC3)nc(-c3cccc4c3OCCO4)n2)n[nH]1` [Compound 129], the IC50 is not above 1000 nM in experiment [1] (setting [5]), not above 1000 nM in experiment [2] (setting [5]), not above 100 nM in experiment [3] and not above 1000 nM in experiment [4] (setting [5]).
